Test results as given in patent US12336991B2, “Factor XIIA inhibitors” (UNIVERSITY OF LEEDS, priority 2018, dated 2025).
pKi: −log10 of the molar value.

Columns and labels:
Format in all cases: biochemical
FXIIa = target: T1, FXIIa (Homo sapiens, UniProt P00748); experiment: Determination of Factor XIIa inhibition, chromogenic substrate S-2302 assay; settings: human FXIIa alpha
T1 sequence (P00748 373-615 limits assumed): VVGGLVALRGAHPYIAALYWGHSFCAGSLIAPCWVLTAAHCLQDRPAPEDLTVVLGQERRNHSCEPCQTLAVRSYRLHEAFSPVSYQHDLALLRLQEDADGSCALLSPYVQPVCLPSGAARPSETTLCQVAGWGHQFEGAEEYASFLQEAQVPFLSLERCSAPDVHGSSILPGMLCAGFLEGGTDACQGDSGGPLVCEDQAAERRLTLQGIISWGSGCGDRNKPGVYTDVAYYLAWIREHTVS
T1 sequence (P00748 20-372 partner limits assumed): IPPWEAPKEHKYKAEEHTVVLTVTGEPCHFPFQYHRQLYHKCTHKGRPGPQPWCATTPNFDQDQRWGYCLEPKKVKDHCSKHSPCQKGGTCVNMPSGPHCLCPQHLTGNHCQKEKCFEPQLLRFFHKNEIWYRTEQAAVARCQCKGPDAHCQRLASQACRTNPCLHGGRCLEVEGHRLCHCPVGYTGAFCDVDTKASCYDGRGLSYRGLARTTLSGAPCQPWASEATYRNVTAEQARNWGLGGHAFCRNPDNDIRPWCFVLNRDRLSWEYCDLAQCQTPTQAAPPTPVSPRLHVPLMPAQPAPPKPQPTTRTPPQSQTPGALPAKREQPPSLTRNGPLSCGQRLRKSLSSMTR
Description: (§1) The activities of the compounds of the invention have been determined in vitro using the following assays protocols for the screening of activity of FXIIa and other proteases. Each of these assays were performed in a purified system employing the use of chromogenic assays in microplate plate wells. Chromogenic peptide substrates mimicking natural protein substrates are attached via an amide bond to a chromogenic group. Paranitroaniline (pNA) is released from the peptide following catalyses by the proteolytic enzyme; the absorbance increases and can be monitored at 405 nm.
(§2) All compounds were dissolved in 100% (v/v) DMSO to a stock concentration of 10 mM, the highest concentration of compound used in each assay is 500 μM. The final concentrations of DMSO were 5% (v/v) in 50 mM Tris 137 mM NaC pH 7.4. Where no test compound was added a final concentration of 5% DMSO was employed.
Determination of Factor XIa Inhibition
Factor XIa activity was measured using a chromogenic substrate S-2302 (Chromogenix). Various concentrations of compound were incubated with 10 nM of FXIIa and incubated at 37° C. for 10 minutes in 50 mM Tris, 137 mM NaCl, pH 7.4, prior to the addition of a final concentration of 450 µM S-2302 chromogenic substrate. Kinetic readings at 405 nm were monitored every 12 secs for a total duration of 3 hours at 37° C. Gradients of initial rates were determined and employed to calculate IC50 values. Values of IC50 were converted to Ki values based on the formula: Ki=IC50/(1+[Substrate]/Km).
The activity of the compounds of the invention has been categorised based on the Ki values, the categories being “*”, “**” and “***”. […] The category “**” refers to compounds with a Ki value of 0.2 μM to 2 μM.

thrombin = target: T2, thrombin (Homo sapiens, UniProt P00734); experiment: Determination of selectivity: thrombin inhibition, chromogenic substrate GPR assay; settings: fold selectivity for FXIIa over thrombin
T2 construct: FXa (5 nM) and thrombin (5 nM)
Description: as §1, §2
(§3) Determination of Selectivity
(§4) To determine selectivity of test compounds, these test compounds were assayed for inhibitory activity against other serine proteases including FXa and thrombin. Essentially compounds at increasing concentrations were incubated with each enzyme: FXa (5 nM) and thrombin (5 nM), for 10 mins at 37° C. followed the appropriate chromogenic substrate, S2765 ([…]), and GPR ([…]) respectively in 50 mM Tris, 137 mM NaCl, pH 7.4. Chromogenic substrates S2765 was from Chromogenix, and GPR from Bachem. Kinetic readings at 405 nm were monitored every 12 secs for a total duration of 3 hours at 37° C. Gradients of initial rates were determined and employed to calculate IC50 values. Values of IC50 were converted to Ki values based on the formula: Ki=IC50/(1+[Substrate]/Km)
(§5) Where [Substrate] denotes the concentration of substrate used in the assay and Km is the determined value of each enzyme with its own substrate.
(§6) The fold selectivity for FXIIa over thrombin for the compounds of the invention has been categorised based on the fold selectivity values, the categories being “+”, “++” and “+++”. The category “+” refers to fold selectivity values less than 10. The category “++” refers to a fold selectivity value of 10 to 100. The category “+++” refers to fold selectivity values greater than 100.

FXa = FXa (Homo sapiens, UniProt P00742); experiment: Determination of selectivity: FXa inhibition, chromogenic substrate S2765 assay; settings: fold selectivity for FXIIa over FXa
Description: as §1, §2, §3, §4, §5, §6
The fold selectivity for FXIIa over FXa for the compounds of the invention has been categorised based on the fold selectivity values, the categories being “o”, “oo” and “ooo”. The category “o” refers to fold selectivity values less than 10. The category “oo” refers to a fold selectivity value of 10 to 100. The category “ooo” refers to fold selectivity values greater than 100.

FXa, sequence (P00742 235-488 limits assumed): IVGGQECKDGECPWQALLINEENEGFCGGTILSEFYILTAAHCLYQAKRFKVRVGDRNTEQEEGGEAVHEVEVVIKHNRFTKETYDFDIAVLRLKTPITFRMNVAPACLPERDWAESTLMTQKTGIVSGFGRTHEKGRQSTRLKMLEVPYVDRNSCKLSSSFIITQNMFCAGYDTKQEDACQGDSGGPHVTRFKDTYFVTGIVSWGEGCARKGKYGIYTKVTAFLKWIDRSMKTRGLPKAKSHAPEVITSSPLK
FXa, sequence (P00742 41-179 partner limits assumed): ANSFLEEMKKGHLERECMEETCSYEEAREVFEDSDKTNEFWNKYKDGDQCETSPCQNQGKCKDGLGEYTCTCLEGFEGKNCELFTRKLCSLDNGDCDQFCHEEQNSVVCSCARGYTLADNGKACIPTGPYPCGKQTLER

SMILES: COc1ccc(C[C@@H]2C[C@@H](C(=O)NCc3cc4cnccc4[nH]3)N(C(=O)C3NCCc4cc(OC)ccc43)C2)cc1 (single isomer, unassigned) [Example M00961]
- pKi (FXIIa): > 6.70
- Thrombin (human)/FXIIa alpha (human) (thrombin): +++ (fold selectivity values greater than 100)
- FXa (human)/FXIIa alpha (human) (FXa): ∘∘∘

SMILES: COc1ccc(C[C@@H]2C[C@@H](C(=O)NCc3cc4cnccc4[nH]3)N(C(=O)C3NCCc4cc(OC)ccc43)C2)cc1 (single isomer, unassigned) [Example M00963]
- pKi (FXIIa): > 6.70
- Thrombin (human)/FXIIa alpha (human) (thrombin): +++ (fold selectivity values greater than 100)
- FXa (human)/FXIIa alpha (human) (FXa): ∘∘∘

SMILES: NCc1ccc(CNC(=O)[C@@H]2C[C@H](O)CN2C(=O)[C@H](N)CCc2ccccc2)cc1 [Example M00626]
- pKi (FXIIa): < 5.70
- Thrombin (human)/FXIIa alpha (human) (thrombin): ++ (fold selectivity value of 10 to 100)
- FXa (human)/FXIIa alpha (human) (FXa): ∘∘

SMILES: Cc1ccccc1CC[C@@H](N)C(=O)N1CCC[C@H]1C(=O)NCc1ccc(CN)cc1 [Example M00760]
- pKi (FXIIa): < 5.70
- Thrombin (human)/FXIIa alpha (human) (thrombin): + (fold selectivity values less than 10)
- FXa (human)/FXIIa alpha (human) (FXa): ∘∘

SMILES: Cc1cccc(CC[C@@H](N)C(=O)N2CCC[C@H]2C(=O)NCc2ccc(CN)cc2)c1 [Example M00762]
- pKi (FXIIa): < 5.70
- Thrombin (human)/FXIIa alpha (human) (thrombin): + (fold selectivity values less than 10)
- FXa (human)/FXIIa alpha (human) (FXa): ∘∘

SMILES: Cc1ccc(CC[C@@H](N)C(=O)N2CCC[C@H]2C(=O)NCc2ccc(CN)cc2)cc1 [Example M00787]
- pKi (FXIIa): < 5.70
- Thrombin (human)/FXIIa alpha (human) (thrombin): + (fold selectivity values less than 10)
- FXa (human)/FXIIa alpha (human) (FXa): ∘∘

SMILES: NCc1ccc(CNC(=O)[C@@H]2CCCN2C(=O)[C@H](N)CCN2CCCCC2)cc1 [Example M00801]
- pKi (FXIIa): < 5.70
- Thrombin (human)/FXIIa alpha (human) (thrombin): ++ (fold selectivity value of 10 to 100)
- FXa (human)/FXIIa alpha (human) (FXa): ∘∘

SMILES: NCc1ccc(CNC(=O)C2CCCN2C(=O)[C@H](N)CCc2cccc(CO)c2)cc1 (stereo partly drawn) [Example M00805]
- pKi (FXIIa): < 5.70
- Thrombin (human)/FXIIa alpha (human) (thrombin): + (fold selectivity values less than 10)
- FXa (human)/FXIIa alpha (human) (FXa): ∘∘

SMILES: NCc1ccc(CNC(=O)[C@@H]2CCCN2C(=O)[C@H](N)CCc2cccnc2)cc1 [Example M00808]
- pKi (FXIIa): < 5.70
- Thrombin (human)/FXIIa alpha (human) (thrombin): + (fold selectivity values less than 10)
- FXa (human)/FXIIa alpha (human) (FXa): ∘∘

SMILES: NCc1ccc(CNC(=O)[C@@H]2CCCN2C(=O)[C@H](N)CCC(=O)N2CC=CC2)cc1 [Example M00922]
- pKi (FXIIa): < 5.70
- Thrombin (human)/FXIIa alpha (human) (thrombin): + (fold selectivity values less than 10)
- FXa (human)/FXIIa alpha (human) (FXa): ∘∘

SMILES: NCc1ccc(CNC(=O)[C@@H]2CCCN2C(=O)[C@H](N)CCC(=O)N2CCC3CC32)cc1 (stereo partly drawn) [Example M00929]
- pKi (FXIIa): < 5.70
- Thrombin (human)/FXIIa alpha (human) (thrombin): + (fold selectivity values less than 10)
- FXa (human)/FXIIa alpha (human) (FXa): ∘∘

SMILES: Cn1nnc2cc(CNC(=O)[C@@H]3C[C@@H](Oc4ccccc4)CN3C(=O)[C@H](N)CCc3ccccc3)ccc21 [Example M00948]
- pKi (FXIIa): < 5.70

SMILES: COc1ccc(C[C@@H]2C[C@@H](C(=O)NCc3ccc4c(c3)nnn4C)N(C(=O)[C@H](N)CCc3ccc(F)cc3)C2)cc1 [Example M00949]
- pKi (FXIIa): 5.70 to 6.70
- Thrombin (human)/FXIIa alpha (human) (thrombin): +++ (fold selectivity values greater than 100)
- FXa (human)/FXIIa alpha (human) (FXa): ∘∘

SMILES: COc1ccc(C[C@@H]2C[C@@H](C(=O)NCc3cc4ccncc4[nH]3)N(C(=O)[C@H](N)CCC(=O)N3CCCC3)C2)cc1 [Example M00952]
- pKi (FXIIa): > 6.70
- Thrombin (human)/FXIIa alpha (human) (thrombin): +++ (fold selectivity values greater than 100)
- FXa (human)/FXIIa alpha (human) (FXa): ∘∘∘

SMILES: COc1ccc(C[C@@H]2C[C@@H](C(=O)NCc3cc4ccncc4[nH]3)N(C(=O)[C@H]3C[C@@H](c4ccccc4)CN3)C2)cc1 [Example M00953]
- pKi (FXIIa): > 6.70
- Thrombin (human)/FXIIa alpha (human) (thrombin): ++ (fold selectivity value of 10 to 100)
- FXa (human)/FXIIa alpha (human) (FXa): ∘∘∘

SMILES: COc1ccc(C[C@@H]2C[C@@H](C(=O)NCc3cc4ccncc4[nH]3)N(C(=O)[C@H](N)CCc3ccccc3)C2)cc1 [Example M00954]
- pKi (FXIIa): > 6.70
- Thrombin (human)/FXIIa alpha (human) (thrombin): + (fold selectivity values less than 10)
- FXa (human)/FXIIa alpha (human) (FXa): ∘∘∘

SMILES: COc1ccc(C[C@@H]2C[C@@H](C(=O)NCc3ccc4c(c3)nnn4C)N(C(=O)[C@H]3C[C@@H](N4CCCCC4)CN3)C2)cc1 [Example M00955]
- pKi (FXIIa): 5.70 to 6.70
- Thrombin (human)/FXIIa alpha (human) (thrombin): +++ (fold selectivity values greater than 100)
- FXa (human)/FXIIa alpha (human) (FXa): ∘∘∘

SMILES: COc1ccc(C[C@@H]2C[C@@H](C(=O)NCc3cc4cnccc4[nH]3)N(C(=O)[C@H](N)CCC(=O)N3CCCC3)C2)cc1 [Example M00957]
- pKi (FXIIa): > 6.70
- Thrombin (human)/FXIIa alpha (human) (thrombin): +++ (fold selectivity values greater than 100)
- FXa (human)/FXIIa alpha (human) (FXa): ∘∘∘

SMILES: COc1ccc(C[C@@H]2C[C@@H](C(=O)NCc3ccc4c(c3)nnn4C)N(C(=O)[C@H]3C[C@@H](n4ccccc4=O)CN3)C2)cc1 [Example M00958]
- pKi (FXIIa): 5.70 to 6.70
- Thrombin (human)/FXIIa alpha (human) (thrombin): +++ (fold selectivity values greater than 100)
- FXa (human)/FXIIa alpha (human) (FXa): ∘∘∘

SMILES: COc1ccc(C[C@@H]2C[C@@H](C(=O)NCc3cc4cnccc4[nH]3)N(C(=O)[C@H]3C[C@@H](c4cnn(C)c4)CN3)C2)cc1 [Example M00959]
- pKi (FXIIa): > 6.70
- Thrombin (human)/FXIIa alpha (human) (thrombin): +++ (fold selectivity values greater than 100)
- FXa (human)/FXIIa alpha (human) (FXa): ∘∘∘

SMILES: COc1ccc(C[C@@H]2C[C@@H](C(=O)NCc3cc4cnccc4[nH]3)N(C(=O)[C@H]3C[C@@H](N4CCCCC4)CN3)C2)cc1 [Example M00964]
- pKi (FXIIa): > 6.70
- Thrombin (human)/FXIIa alpha (human) (thrombin): +++ (fold selectivity values greater than 100)
- FXa (human)/FXIIa alpha (human) (FXa): ∘∘∘

SMILES: CC(=O)N[C@H]1C[C@@H](C(=O)NCc2ccc3c(c2)nnn3C)N(C(=O)[C@H](N)CCc2ccccc2)C1 [Example M05144, (2S,4S)-4-Acetylamino-1-((R)-2-amino-4-phenyl-butyryl)-pyrrolidine-2-carboxylic acid (1-methyl-1H-benzotriazol-5-ylmethyl)-amide]
- pKi (FXIIa): < 5.70

SMILES: COc1ccc(C[C@@H]2C[C@@H](C(=O)NCc3ccc4c(c3)nnn4C)N(C(=O)[C@H]3CC(c4cnccc4C(F)(F)F)CN3)C2)cc1 (stereo partly drawn) [Example M05398]
- pKi (FXIIa): < 5.70

SMILES: COc1ccc(C[C@@H]2C[C@@H](C(=O)NCc3ccc4c(c3)nnn4C)N(C(=O)[C@H]3CC(c4cnccc4C)CN3)C2)cc1 (stereo partly drawn) [Example M05408]
- pKi (FXIIa): < 5.70

SMILES: COc1ccc(C[C@@H]2C[C@@H](C(=O)NCc3ccc4c(c3)nnn4C)N(C(=O)C(N)CC(C)(C)c3ccccc3)C2)cc1 (stereo partly drawn) [Example M05415]
- pKi (FXIIa): < 5.70

SMILES: COc1ccc(C[C@@H]2C[C@@H](C(=O)NCc3ccc4c(c3)nnn4C)N(C(=O)C(N)CC(C)(C)c3ccccc3)C2)cc1 (stereo partly drawn) [Example M05416]
- pKi (FXIIa): < 5.70
